In article PMC4669708 (Cell Death & Disease, 2015):

Tests used:
Assay in all cases: c-ponatinib pulldown LC-MS/MS
Assay type in all cases: binding
CDK16 = CDK16 (Homo sapiens, UniProt Q00536)
How it was run: (§1)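 Whole cell lysate (10 mg) was first passed over immobilized c-ponatinib, and bound proteins were eluted. After reduction, alkylation and tryptic digestion, the peptides were analysed by LC-MS/MS. Finally, binding specificity was assigned by a combined P-value, with or without free-compound competition.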

CDK19 = CDK19 (Homo sapiens, UniProt Q9BWU1)
How it was run: as §1

MAPK12 = molecular target: T1, MAPK12 (Homo sapiens, UniProt P53778)
T1 sequence (P53778 1-367): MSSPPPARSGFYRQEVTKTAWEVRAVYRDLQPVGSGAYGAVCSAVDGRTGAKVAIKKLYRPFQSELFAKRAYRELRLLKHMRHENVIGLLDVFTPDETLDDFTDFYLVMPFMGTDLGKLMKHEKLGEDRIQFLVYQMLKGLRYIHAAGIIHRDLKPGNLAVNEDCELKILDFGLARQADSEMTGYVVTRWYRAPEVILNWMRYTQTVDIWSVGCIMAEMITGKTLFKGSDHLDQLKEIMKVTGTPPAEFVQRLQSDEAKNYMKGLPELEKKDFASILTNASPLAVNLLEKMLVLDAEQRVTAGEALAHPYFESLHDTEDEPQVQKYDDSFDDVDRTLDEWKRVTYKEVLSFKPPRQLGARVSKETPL
How it was run: as §1

YWHAE = molecular target: T2, YWHAE (Homo sapiens, UniProt P62258)
T2 sequence (P62258 1-255): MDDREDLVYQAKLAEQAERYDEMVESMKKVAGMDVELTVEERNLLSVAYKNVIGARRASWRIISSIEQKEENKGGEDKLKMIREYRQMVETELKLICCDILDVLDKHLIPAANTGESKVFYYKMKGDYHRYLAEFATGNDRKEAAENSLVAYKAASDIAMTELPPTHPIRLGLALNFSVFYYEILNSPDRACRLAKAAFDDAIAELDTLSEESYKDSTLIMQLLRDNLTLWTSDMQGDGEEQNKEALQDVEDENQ
How it was run: as §1

TUBA1B = TUBA1B (Homo sapiens, UniProt P68363)
How it was run: as §1

LCK = LCK (Homo sapiens, UniProt P06239)
How it was run: as §1

Chain of CDK19 (Q9BWU1 whole entry): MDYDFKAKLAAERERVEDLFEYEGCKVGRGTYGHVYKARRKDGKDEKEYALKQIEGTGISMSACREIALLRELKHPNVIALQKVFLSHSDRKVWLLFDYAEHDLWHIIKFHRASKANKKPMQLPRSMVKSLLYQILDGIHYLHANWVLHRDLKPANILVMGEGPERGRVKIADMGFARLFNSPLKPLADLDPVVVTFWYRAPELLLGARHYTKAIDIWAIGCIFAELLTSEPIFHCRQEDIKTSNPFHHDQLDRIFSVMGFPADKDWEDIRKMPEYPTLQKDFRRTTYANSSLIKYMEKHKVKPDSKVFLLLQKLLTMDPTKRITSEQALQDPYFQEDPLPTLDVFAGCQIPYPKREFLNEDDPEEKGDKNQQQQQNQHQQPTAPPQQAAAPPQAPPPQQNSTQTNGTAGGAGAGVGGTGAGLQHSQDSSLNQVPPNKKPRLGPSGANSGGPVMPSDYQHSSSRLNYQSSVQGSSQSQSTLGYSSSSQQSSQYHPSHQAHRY
Chain of CDK19 (P24863 whole entry partner): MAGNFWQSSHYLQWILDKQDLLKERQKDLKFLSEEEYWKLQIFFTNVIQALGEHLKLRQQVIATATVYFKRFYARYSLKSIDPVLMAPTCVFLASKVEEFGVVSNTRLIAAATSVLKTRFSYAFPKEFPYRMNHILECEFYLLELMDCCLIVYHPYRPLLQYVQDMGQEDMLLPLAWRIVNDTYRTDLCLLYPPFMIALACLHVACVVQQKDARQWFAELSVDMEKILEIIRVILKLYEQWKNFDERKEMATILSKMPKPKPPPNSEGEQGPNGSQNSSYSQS
Chain of LCK (P06239 whole entry): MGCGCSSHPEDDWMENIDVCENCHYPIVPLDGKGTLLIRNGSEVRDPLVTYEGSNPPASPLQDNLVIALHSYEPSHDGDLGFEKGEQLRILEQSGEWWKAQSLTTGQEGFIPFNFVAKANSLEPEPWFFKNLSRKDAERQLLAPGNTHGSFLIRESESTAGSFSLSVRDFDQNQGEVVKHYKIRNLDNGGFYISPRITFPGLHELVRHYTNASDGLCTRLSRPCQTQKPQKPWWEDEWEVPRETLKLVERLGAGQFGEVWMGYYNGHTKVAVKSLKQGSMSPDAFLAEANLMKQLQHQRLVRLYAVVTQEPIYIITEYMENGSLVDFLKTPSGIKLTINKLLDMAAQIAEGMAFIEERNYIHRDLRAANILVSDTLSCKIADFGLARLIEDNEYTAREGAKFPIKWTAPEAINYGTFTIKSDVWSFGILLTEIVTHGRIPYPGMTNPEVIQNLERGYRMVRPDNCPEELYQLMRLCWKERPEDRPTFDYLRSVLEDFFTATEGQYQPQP
Chain of TUBA1B (P68363 whole entry): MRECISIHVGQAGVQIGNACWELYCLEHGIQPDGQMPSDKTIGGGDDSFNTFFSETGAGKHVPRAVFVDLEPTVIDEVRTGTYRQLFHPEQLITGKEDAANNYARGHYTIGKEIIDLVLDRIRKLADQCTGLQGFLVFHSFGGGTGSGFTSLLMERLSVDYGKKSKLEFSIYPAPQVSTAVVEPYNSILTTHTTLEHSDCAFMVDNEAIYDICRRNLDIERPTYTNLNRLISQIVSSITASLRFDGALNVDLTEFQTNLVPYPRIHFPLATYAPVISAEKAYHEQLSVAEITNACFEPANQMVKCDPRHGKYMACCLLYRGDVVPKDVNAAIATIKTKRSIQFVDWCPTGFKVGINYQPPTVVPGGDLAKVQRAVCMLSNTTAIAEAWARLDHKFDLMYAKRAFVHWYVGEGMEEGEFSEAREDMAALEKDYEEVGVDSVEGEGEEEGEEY
Chain of TUBA1B (P07437 whole entry partner): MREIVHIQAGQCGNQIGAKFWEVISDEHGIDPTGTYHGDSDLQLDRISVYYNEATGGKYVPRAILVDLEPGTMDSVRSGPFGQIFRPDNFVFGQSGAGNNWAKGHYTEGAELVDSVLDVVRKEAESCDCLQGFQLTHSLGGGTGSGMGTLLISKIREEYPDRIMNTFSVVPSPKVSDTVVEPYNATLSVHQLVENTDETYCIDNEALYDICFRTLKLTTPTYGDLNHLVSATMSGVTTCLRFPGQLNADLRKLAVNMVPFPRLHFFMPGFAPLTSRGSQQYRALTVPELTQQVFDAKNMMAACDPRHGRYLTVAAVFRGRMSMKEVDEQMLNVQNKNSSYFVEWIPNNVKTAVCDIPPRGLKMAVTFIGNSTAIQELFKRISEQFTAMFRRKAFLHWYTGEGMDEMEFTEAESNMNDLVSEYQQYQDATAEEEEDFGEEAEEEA
Chain of CDK16 (Q00536 whole entry): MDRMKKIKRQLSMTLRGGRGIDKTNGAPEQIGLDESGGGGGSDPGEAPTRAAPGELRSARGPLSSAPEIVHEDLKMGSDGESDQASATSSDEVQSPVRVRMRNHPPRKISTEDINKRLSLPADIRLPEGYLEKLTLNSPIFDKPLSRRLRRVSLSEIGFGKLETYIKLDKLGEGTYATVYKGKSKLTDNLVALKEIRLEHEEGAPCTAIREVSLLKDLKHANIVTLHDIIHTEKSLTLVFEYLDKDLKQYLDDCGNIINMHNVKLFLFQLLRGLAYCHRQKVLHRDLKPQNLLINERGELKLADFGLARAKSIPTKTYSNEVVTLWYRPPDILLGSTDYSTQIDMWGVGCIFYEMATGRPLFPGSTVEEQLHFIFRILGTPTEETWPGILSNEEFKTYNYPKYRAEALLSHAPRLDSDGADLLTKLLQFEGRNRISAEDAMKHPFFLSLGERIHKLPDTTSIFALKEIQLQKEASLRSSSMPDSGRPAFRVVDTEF

Cc1ccc(C(=O)Nc2ccc(CN3CCN(CCCN)CC3)c(C(F)(F)F)c2)cc1C#Cc1cnc2cccnn12 [c-ponatinib]
Av. SC comp. (CDK16; + free ponatinib): 1.25
Total SC comp. (CDK16; + free ponatinib): 5
Av. SC (CDK16; no competitor): 10.75
Total SC (CDK16; no competitor): 43
Av. SC comp. (CDK19; + free ponatinib): 0
Total SC comp. (CDK19; + free ponatinib): 0
Av. SC (CDK19; no competitor): 7.5
Total SC (CDK19; no competitor): 30
Av. SC comp. (MAPK12; + free ponatinib): 3.75
Total SC comp. (MAPK12; + free ponatinib): 15
Av. SC (MAPK12; no competitor): 10.75
Total SC (MAPK12; no competitor): 43
Av. SC comp. (YWHAE; + free ponatinib): 1
Total SC comp. (YWHAE; + free ponatinib): 4
Av. SC (YWHAE; no competitor): 13
Total SC (YWHAE; no competitor): 52
Av. SC comp. (TUBA1B; + free ponatinib): 10.25
Total SC comp. (TUBA1B; + free ponatinib): 41
Av. SC (TUBA1B; no competitor): 18.5
Total SC (TUBA1B; no competitor): 74
Av. SC comp. (LCK; + free ponatinib): 0.75
Total SC comp. (LCK; + free ponatinib): 3
Av. SC (LCK; no competitor): 98.5
Total SC (LCK; no competitor): 394
